From publication PMC11279551, “Pharmacokinetics and Enterohepatic Circulation of 2-(Quinoline-8-carboxamido)benzoic Acid (2-QBA) in Mice” (Pharmaceutics, 2024)
Where two headings read alike, the source gives them in different places.

Tests used:
[1] = Urinary and fecal excretion of 2-QBA and 2-QBA-Glu with vehicle or AC treatment (β-glucuronidase treatment); type: in vivo; conditions: mice; for urinary excretion rate: PO 2 mg/kg
Method: In total, […] were administered 2-QBA (1 mg/kg/3 mL) via the tail vein. Two hours after the 2-QBA dosing, AC (0.8 g/kg/5 mL in distilled water) or a vehicle (5 mL/kg distilled water) was administrated via oral gavage. Each group included ten mice who were randomly divided into two groups for sparse sampling. Blood collection was performed at 0.083, 0.5, 2, and 8 h from 5 mice and at 0.25, 1, 4, and 24 h from another 5 mice, as described previously. Four mice treated with either AC (0.8 g/kg) or the vehicle 2 h after the 2-QBA IV dosing (1 mg/kg) were returned to a metabolic cage to collect the urine and feces samples. The urine and feces samples were collected for 72 h.
Next, 2-QBA was administered PO (2 mg/kg/5 mL) with or without AC (0.8 g/kg in 3 mL of DW), which was administered via oral gavage 2 h after the 2-QBA dosing. Each group included eight mice who were randomly divided into two groups for sparse sampling. Blood collection was performed at 0.25, 0.75, 2, and 8 h from 4 mice and at 0.5, 1, 4, and 24 h from another 4 mice, as described previously. Four mice treated with either AC (0.8 g/kg) or vehicle 2 h after the 2-QBA PO dosing (2 mg/kg) were returned to a metabolic cage to collect the urine and feces samples. The urine and feces samples were collected for 72 h.
Aliquots of plasma samples (30 μL) were added to 120 μL of IS solution. The mixture was vigorously vortexed for 5 min and then centrifuged at 13,000× g for 5 min. The supernatant was transferred to autosampler vials. Subsequently, a 3 μL aliquot was injected into the LC-MS/MS system. Aliquots (30 μL) of urine and 10% feces homogenate samples were added to 60 μL of 150 mM sodium acetate buffer (pH 5.0) in the presence or absence of β-glucuronidase (900 unit) at 37 °C for 2 h. […]
Then, we quantified the 2-QBA and 2-QBA-Glu from the urine and fecal samples obtained from the mice after IV or PO administration of 2-QBA. In addition, the amount of 2-QBA-Glu was calculated by subtracting the control 2-QBA from the total 2-QBA with β-glucuronidase treatment. […]

[2] = Pharmacokinetics after IV administration in mice; type: in vivo; conditions: plasma; for AUC(0-inf) / MRT / clearance / half-life / AUC(0-t) / Vd: male, ICR, mouse; for AUC(0-t): read-out: AUC24h; for Vd: read-out: Vdss
Method: Male ICR mice (7 weeks old, […]; Samtako, Osan, Korea) were acclimated to the animal facility at Kyungpook National University for one week with free access to animal chow and water. In the per oral administration (PO) groups, the mice were fasted for 14–16 h prior to the administration of 2-QBA.
For intravenous (IV) administration, 2-QBA (0.5 mg/kg in 3 mL of saline containing 10% DMSO) was injected via the tail vein for eight mice that were randomly divided into two groups for sparse sampling. Blood samples were collected via the jugular vein at 0.083, 0.5, 2, and 8 h from 4 mice and at 0.25, 1, 4, and 24 h from another 4 mice. Eight mice were administered 1 mg/kg of 2-QBA using the same protocol described above.
After the PO administration of 2-QBA (2 mg/kg in 5 mL of saline containing 10% DMSO) using an oral gavage for 10 mice, blood samples were collected at 0.25, 0.75, 2, and 8 h from 5 mice and at 0.5, 1, 4, and 24 h from another 5 mice. Ten mice in each group were administered 5 mg/kg or 15 mg/kg of 2-QBA using an oral gavage and blood was drawn using the same protocol described above. All blood samples were centrifuged at 13,000× g for 1 min and the supernatant plasma (30 μL) was stored at −80 °C until the analysis of the 2-QBA. For the analysis of 2-QBA in the plasma samples, 120 μL of IS solution (berberine 1 ng/mL in acetonitrile) was added to plasma samples (30 μL). The mixture was vigorously vortexed for 5 min and then centrifuged at 13,000× g for 5 min. The supernatant was transferred to autosampler vials. Subsequently, a 3 μL aliquot was injected into the LC-MS/MS system.
WinNonlin 5.1 software (Pharsight Co., Mountain View, CA, USA) was used to calculate the pharmacokinetic parameters. AUClast and AUCinf indicate the areas under the plasma concentration curve from 0 h to the last sample and from 0 h to infinity, respectively; these were estimated using the linear trapezoidal method. T1/2 is the elimination half-life, which is estimated from the elimination coefficient (k) (i.e., 0.693/k), and MRT is the mean residence time. CL is the total clearance, which is calculated by dividing the dose by AUCinf. Vdss is the volume of the distribution at a steady state, calculated from MRTxCL. CLrenal and CLfeces are calculated by dividing the amount excreted in urine and feces by the AUCinf, respectively. CLmetabolism is calculated by subtracting CLrenal and CLfeces from CL. Cmax and Tmax are the maximum plasma concentration and time to reach Cmax, respectively. BA is calculated by dividing the dose-normalized AUCinf for PO administration (AUCinf/PO dose) by the dose-normalized AUCinf for IV administration (AUCinf/IV dose). All data are expressed as the mean ± standard deviation (SD).

Plasma protein binding = type: in vitro ADME; conditions: n = 6, read-out: plasma protein binding rate (converted)

dose excreted ([1]; ICR, mouse, faeces, 1 mg/kg, IV injection of 2-QBA, read-out: fecal recovery rate): < 5%
urinary excretion rate ([1]; with AC (0.8 g/kg)): 17.5 % of the administered PO dose
urinary excretion rate ([1]; without AC): 27.7 % of the administered PO dose
AUC24h/dose ([2]; IV 0.5 mg/kg): 824.7 ± 64.1 ng·h/mL/mg/kg
AUCinf/dose ([2]; IV 0.5 mg/kg): 835.6 ± 64.6 ng·h/mL/mg/kg
AUC24h/dose ([2]; IV 1.0 mg/kg): 996.7 ± 146.6 ng·h/mL/mg/kg
AUCinf/dose ([2]; IV 1.0 mg/kg): 1044 ± 174.9 ng·h/mL/mg/kg
AUC(0-inf) ([2]; IV 0.5 mg/kg): 418 ± 32.3 ng·h/mL
MRT ([2]; IV 0.5 mg/kg): 3.88 ± 1.58 h
clearance ([2]; IV 0.5 mg/kg): 20 ± 1.53 mL/min/kg
half-life ([2]; IV 0.5 mg/kg): 4.61 ± 2.19 h
AUC(0-t) ([2]; IV 0.5 mg/kg): 412 ± 32.1 ng·h/mL
Vd ([2]; IV 0.5 mg/kg): 4.73 ± 2.15 L/kg
AUC(0-inf) ([2]; IV 1.0 mg/kg): 1040 ± 175 ng·h/mL
MRT ([2]; IV 1.0 mg/kg): 3.03 ± 1.11 h
clearance ([2]; IV 1.0 mg/kg): 16.3 ± 2.81 mL/min/kg
half-life ([2]; IV 1.0 mg/kg): 5.26 ± 1.31 h
AUC(0-t) ([2]; IV 1.0 mg/kg): 997 ± 147 ng·h/mL
Vd ([2]; IV 1.0 mg/kg): 2.88 ± 0.72 L/kg
fraction unbound (Plasma protein binding): 0.128
Compound: O=C(O)c1ccccc1NC(=O)c1cccc2cccnc12 [2-QBA, 2-(quinoline-8-carboxamido)benzoic acid]
